Data published in publication PMC12292521, “Discovery of a Potent Antimicrobial Peptide Through Rational Design: A New Frontier in Pathogen Control” (Biomolecules, 2025).
Peptide text beside a SMILES is read from it.

Assays:
[1] = Conformational stability by CD and fluorescence spectroscopy in SDS; type: physicochemical
Description: The secondary structure elements of the antimicrobial molecule were analyzed in a 0.1 cm optical path-length quartz cuvette (Hellma Analytics, Milan, Italy) using Jasco J-810 Circular Dichroism Spectropolarimeter (JASCO, Tokyo, Japan). All spectra were recorded at 25 °C in a wavelength range of 190–250 nm with a 1 nm bandwidth, a scanning speed of 20 nm/min, and averaged over five scans. The spectra as a function of SDS concentration (3, 50, and 150 mM) were obtained at 50 μM final concentration of peptide in 10 mM Tris-HCl buffer, pH 7.0. The folding kinetic analysis of the peptide was carried out after the addition of SDS (50 mM) to the sample (50 μM in 10 mM Tris-HCl, pH 7.0), up to 24 h incubation. […] Next, 50 mM of SDS was added to each sample, which was analyzed by CD spectroscopy after 48 h of incubation at 25 °C. […] All CD spectra of RKW were corrected by subtracting a blank spectrum of a sample containing all components except the peptide (baseline correction). The mean residue ellipticity ([θ], deg. cm^2 dmol^−1) was obtained by the equation [θ] = 100 θ/cnl, where θ is the ellipticity (mdeg), c is the peptide concentration (mM), n is the number of residues, and l is the path length (cm).
Fluorescence experiments were conducted in a Shimadzu RF-6000 spectrofluorometer (Kyoto, Japan). The analyses were performed by setting an excitation and emission slit width of 5 nm and using a quartz cell with a path length of 1 cm. The intrinsic tryptophan residues were excited at a wavelength of 280 nm, following the emission between 300 and 400 nm. The effects of SDS on the peptide folding, the folding kinetics, and the thermal and the pH stability were monitored as described in Section 2.2.

[2] = tested on: Pseudomonas aeruginosa ATCC 15442; assay: Quantitative suspension test, bactericidal activity, BS EN 1276:2019; type: cell-based; set-up: key to Bactericidal activity verdict: Active: For bacteria: ACTIVE if log R ≥ 5 according to BS EN 1276:2019; Not active: For bacteria: ACTIVE if log R ≥ 5 according to BS EN 1276:2019; details: 60 min, 37 °C, BSA 0.3 g/L
From the text: (§1) The method is based on the suspension test according to BS EN 1276:2019, which specifies a quantitative suspension analysis for the evaluation of the bactericidal activity of chemical disinfectants and antiseptics used in food, industrial, domestic, and institutional areas against a panel of microorganisms under conditions that more closely simulate practical use. Briefly, S. aureus ATCC 6538, P. aeruginosa ATCC 15442, and Staphylococcus epidermidis ATCC 12228 were used as test organisms at a bacterial concentration of 1.0 × 10^8 colony-forming units (CFU) per mL (CFU/mL). In the test, BSA (Bovine Serum Albumin) (0.3 g/L) was used as an interfering substance to mimic clean conditions. […] The reaction mixture was incubated at 37 °C for 60 min before transferring each sample to a tube containing a neutralizer solution consisting of 30 g/L polysorbate 80, 1 g/L sodium thiosulfate, 3 g/L lecithin, 1 g/L tryptone, 8.5 g/L NaCl, 100 mL/L phosphate buffer and water. The negative control (untreated cells) was prepared using PBS instead of biocides. The solutions were then plated onto Tryptone Soy Agar (TSA) and incubated at 37 °C for 48 h to determine the logarithmic CFU/mL reduction, according to the following Equation:(2) log R = log (N0) − log (Na) where R refers to the reduction in viability, N refers to the number of CFU/mL in the test mixture at the beginning of the contact time, and Na refers to the number of CFU/mL in the test mixture at the end of the contact time. […] The test method and the minimum requirements for fungicidal activity of chemical disinfectant and antiseptic products were performed according to BS EN 1650:2019. The fungicidal activity was studied using the vegetative cells of Candida albicans ATCC 10231 and the spores of Aspergillus brasiliensis ATCC 16404 as test organisms. […] The mixture was maintained at 37 °C for a contact time of 60 min. At the end of this contact time, an aliquot was taken, and the fungicidal activity was immediately neutralized with a solution consisting of 30 g/L polysorbate 80, 1 g/L sodium thiosulfate, 3 g/L lecithin, 1 g/L tryptone, 8.5 g/L NaCl, 100 mL/L phosphate buffer and water. The samples were then plated onto malt extract agar (MEA) and incubated at 30 °C for 48 h to determine the numbers of surviving fungi as the logarithmic CFU/mL reduction, calculated according to Equation (2).

[3] = tested on: Staphylococcus aureus ATCC 6538; assay: as above; type: cell-based; set-up: key to Bactericidal activity verdict: Active: For bacteria: ACTIVE if log R ≥ 5 according to BS EN 1276:2019; Not active: For bacteria: ACTIVE if log R ≥ 5 according to BS EN 1276:2019; details: 60 min, 37 °C, BSA 0.3 g/L
From the text: as §1

[4] = tested on: Staphylococcus epidermidis ATCC 12228; assay: as above; type: cell-based; set-up: key to Bactericidal activity verdict: Active: For bacteria: ACTIVE if log R ≥ 5 according to BS EN 1276:2019; Not active: For bacteria: ACTIVE if log R ≥ 5 according to BS EN 1276:2019; details: 60 min, 37 °C, BSA 0.3 g/L
From the text: as §1

CC[C@H](C)[C@H](NC(=O)[C@H](Cc1c[nH]c2ccccc12)NC(=O)[C@H](CCCCN)NC(=O)[C@@H](N)CCCNC(=N)N)C(=O)N[C@@H](CC(C)C)C(=O)N[C@@H](CCCCN)C(=O)N[C@@H](Cc1c[nH]c2ccccc12)C(=O)N[C@@H](CC(C)C)C(=O)N[C@@H](CCCNC(=N)N)C(=O)N[C@H](C(=O)N[C@@H](Cc1c[nH]c2ccccc12)C(=O)N[C@@H](CCCCN)C(=O)N[C@@H](CCCCN)C(N)=O)[C@@H](C)O [RKW] (H-RKWILKWLRTWKK-NH2; N-terminus assumed)
α-helical conformation over time in SDS ([1]; 50 μM peptide, 10 mM Tris-HCl pH 7.0, 50 mM SDS, 25 °C, up to 24 h, CD and fluorescence): did not markedly change its α-helical conformation | Helical content at extreme acidic pH ([1]; 50 μM peptide, 10 mM glycine-HCl pH 2.0, 50 mM SDS, 48 h at 25 °C, CD): entirely disordered | Structural and folding stability in SDS micellar solution under other pH and temperature conditions ([1]; 50 μM peptide, 50 mM SDS, pH 7.0 and 11.0 at 25 °C, 4, 37 and 90 °C at pH 7.0, 48 h, CD and fluorescence): not markedly affected | Time the α-helical conformation remains stable in a wide range of pH and temperature ([1]; membrane-like environment (SDS), abstract): at least 48 h | Bactericidal activity verdict ([2]; RKW 5 µM): Active | Na (CFU/mL at the end of the contact time) ([2]; RKW 5 µM): < 1.40 × 10^2 CFU/mL | Bactericidal activity verdict ([2]; RKW 10 µM): Active | Na (CFU/mL at the end of the contact time) ([2]; RKW 10 µM): < 1.40 × 10^2 CFU/mL | Bactericidal activity verdict ([2]; RKW 20 µM): Active | Na (CFU/mL at the end of the contact time) ([2]; RKW 20 µM): < 1.40 × 10^2 CFU/mL | Bactericidal activity verdict ([2]; RKW 50 µM): Active | Na (CFU/mL at the end of the contact time) ([2]; RKW 50 µM): < 1.40 × 10^2 CFU/mL | Bactericidal activity verdict ([2]; RKW 100 µM): Active | Na (CFU/mL at the end of the contact time) ([2]; RKW 100 µM): < 1.40 × 10^2 CFU/mL | Bactericidal activity verdict ([3]; RKW 5 µM): Na = 1.11 × 10^5 log Na = 5.10 log R = 2.25 Not active | Na (CFU/mL at the end of the contact time) ([3]; RKW 5 µM): 1.11 × 10^5 CFU/mL | Bactericidal activity verdict ([3]; RKW 10 µM): Na = 5.10 × 10^4 log Na = 4.71 log R = 2.59 Not active | Na (CFU/mL at the end of the contact time) ([3]; RKW 10 µM): 5.10 × 10^4 CFU/mL | Bactericidal activity verdict ([3]; RKW 20 µM): Na= 1.47 × 10^4 log Na = 4.20 log R = 3.13 Not active | Na (CFU/mL at the end of the contact time) ([3]; RKW 20 µM): 1.47 × 10^4 CFU/mL | Na (CFU/mL at the end of the contact time) ([3]; RKW 50 µM): 1.47 × 10^4 CFU/mL | Na (CFU/mL at the end of the contact time) ([3]; RKW 100 µM): 1.47 × 10^4 CFU/mL | Bactericidal activity verdict ([4]; RKW 5 µM): Na = 3.70 × 10^2 log Na = 2.57 log R = 4.71 Not active | Na (CFU/mL at the end of the contact time) ([4]; RKW 5 µM): 3.70 × 10^2 CFU/mL | Bactericidal activity verdict ([4]; RKW 10 µM): Na = 2.40 × 10^2 log Na = 2.38 log R = 4.90 Not active | Na (CFU/mL at the end of the contact time) ([4]; RKW 10 µM): 2.40 × 10^2 CFU/mL | Bactericidal activity verdict ([4]; RKW 20 µM): Na = 1.60 × 10^2 log Na = 2.20 log R = 5.08 Active | Na (CFU/mL at the end of the contact time) ([4]; RKW 20 µM): 1.60 × 10^2 CFU/mL | Bactericidal activity verdict ([4]; RKW 50 µM): Na = 1.60 × 10^2 log Na = 2.20 log R = 5.08 Active | Na (CFU/mL at the end of the contact time) ([4]; RKW 50 µM): 1.60 × 10^2 CFU/mL | Bactericidal activity verdict ([4]; RKW 100 µM): Na = 1.60 × 10^2 log Na = 2.20 log R = 5.08 Active | Na (CFU/mL at the end of the contact time) ([4]; RKW 100 µM): 1.60 × 10^2 CFU/mL
